Assay results: PubChem BioAssay (NCI)
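Exposure lasted 48 hours, with cells grown in 96-well plates and compounds tested at five concentrations. Definition used: TGI = concentration required for complete inhibition of growth.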

Columns and labels:
Experiment in all cases: inhibition of tumour cell growth, NCI panel, 48 h
[1] = system: A498 renal
[2] = system: DU-145 prostate
[3] = system: HCT-116 colon
[4] = system: HCT-15 colon
[5] = system: HL-60(TB) leukemia
[6] = system: HOP-62 NSCLC
[7] = system: HOP-92 NSCLC
[8] = system: LOX IMVI melanoma
[9] = system: MDA-N
[10] = system: MOLT-4 leukemia
[11] = system: NCI-H226 lung
[12] = system: NCI-H460 lung
[13] = system: PC-3 prostate
[14] = system: RPMI-8226 leukemia
[15] = system: COLO 205 colon
[16] = system: MCF7 breast
[17] = system: MDA-MB-435
[18] = system: SK-MEL-2 melanoma
[19] = system: NCI/ADR-RES ovarian

Row | Structure (SMILES) | TGI [1] [µM] | TGI [2] [µM] | TGI [3] [µM] | TGI [4] [µM] | TGI [5] [µM] | TGI [6] [µM] | TGI [7] [µM] | TGI [8] [µM] | TGI [9] [µM] | TGI [10] [µM] | TGI [11] [µM] | TGI [12] [µM] | TGI [13] [µM] | TGI [14] [µM] | TGI [15] [µM] | TGI [16] [µM] | TGI [17] [µM] | TGI [18] [µM] | TGI [19] [µM]
1 | Cc1ccc(/C=C2\Cc3cccc(C)c3C2=O)c(C(=O)O)c1 | > 100 | > 100 | > 100 | > 100 | > 100 | > 100 | 53.6 | > 100 | > 100 | > 100 | > 100 | > 100 | > 100 | > 100 | – | – | – | – | –
2 | CC(C)=CCN1c2ccc(Cl)cc2NC(=O)CC1C (configuration not stated) | 49 | > 100 | 38 | > 100 | > 100 | 61.7 | 37.8 | 33.2 | 51.7 | > 100 | 46.9 | 37.6 | 61.1 | 50.1 | 56.9 | 45.6 | 41.1 | 39.5 | –
3 | O=c1c2cc([N+](=O)[O-])ccc2n2n1CCCC2 | > 100 | > 100 | > 100 | > 100 | > 100 | > 100 | > 100 | > 100 | > 100 | > 100 | > 100 | > 100 | > 100 | > 100 | > 100 | – | > 100 | – | > 100
4 | CCOC(=O)C1=CC(C)(C(=O)OCC)Nc2c(nc(OC)[nH]c2=O)N1 (configuration not stated) | > 10 | > 10 | > 10 | > 10 | – | > 10 | > 10 | > 10 | > 10 | > 10 | > 10 | > 10 | > 10 | > 10 | > 10 | > 10 | – | > 10 | > 10
5 | COc1ccc(-n2c(N)c(C#N)c(C#N)c2-c2ccccc2)cc1 | > 100 | > 100 | > 100 | > 100 | > 100 | > 100 | 76.5 | > 100 | – | > 100 | > 100 | – | > 100 | > 100 | > 100 | > 100 | > 100 | > 100 | > 100
6 | COC(=O)/C=C(/OC)[C@H](C)[C@H](/C=C/c1csc(-c2csc(C(C)C)n2)n1)OC | > 100 | > 100 | > 100 | > 100 | 99.5 | > 100 | > 100 | 5.07 | – | > 100 | > 100 | > 100 | > 100 | 65.8 | > 100 | > 100 | > 100 | > 100 | > 100
7 | COC1O[C@H]2[C@H]3[C@@H]1[C@@H](OS(=O)(=O)c1ccc(C)cc1)C(=O)N3C[C@H]2O (some centres not stated) | > 100 | > 100 | > 100 | > 100 | – | > 100 | – | > 100 | – | > 100 | > 100 | > 100 | > 100 | > 100 | > 100 | > 100 | > 100 | > 100 | > 100
8 | COc1ccc2c(ccc3c(COC(=O)NC(C)C)c(COC(=O)NC(C)C)n(C)c32)c1 | 21 | – | 17.4 | 28.9 | – | 20.9 | 27.2 | 19.6 | 24.7 | > 100 | 23.2 | 2.04 | 24.3 | > 100 | 22.6 | 93.5 | 44.1 | 32.5 | 22.9
9 | COc1cc(Nc2nc3ccc(C(F)(F)F)cc3nc2C(=O)O)cc(OC)c1OC | – | 80.6 | 34.9 | 35.3 | > 100 | 48.2 | – | 35.6 | 46.8 | > 100 | 40.6 | 48.4 | 56.1 | 91.3 | 34.6 | > 100 | 71.1 | 45.3 | 45.5
10 | O=C1C2CN(Cc3ccccc3)CC1CN(CC1CC1)C2 | > 100 | – | – | > 100 | > 100 | > 100 | > 100 | > 100 | – | > 100 | > 100 | > 100 | – | > 100 | > 100 | – | – | > 100 | –
11 | Cn1/c(=N\N=C(\CNCCO)[C@@H](O)[C@@H]2OC(c3ccccc3)OC[C@H]2O)sc2ccccc21 (some centres not stated) | – | 35.1 | 29.5 | 54.6 | – | 34.7 | 32 | 31 | 32.5 | 33.6 | – | 49 | 35.5 | – | 30.9 | 34.2 | 35 | 33.3 | > 100
12 | O=C1C(=Cc2cccc(O)c2)N=C(c2ccccc2)N1n1c(-c2ccccc2)nc2ccccc2c1=O | 72.4 | 74.5 | 43.2 | > 100 | 54 | – | 66 | 52.5 | – | 44.2 | 18.9 | 59.8 | 58.7 | 50.2 | 79.7 | – | > 100 | – | > 100
13 | CCCCCCCCCCCCCCCCOCC(CCl)OP(=O)(O)OP(=O)(O)OCC1OC(n2ccc(N)nc2=O)C(O)C1O (configuration not stated) | > 100 | – | > 100 | > 100 | > 100 | > 100 | > 100 | > 100 | > 100 | > 100 | > 100 | > 100 | > 100 | > 100 | > 100 | > 100 | > 100 | > 100 | > 100
14 | COc1cccc(Cc2cc(=O)c3ccc(C)nc3[nH]2)c1 | > 100 | > 100 | > 100 | > 100 | > 100 | > 100 | > 100 | > 100 | > 100 | > 100 | > 100 | > 100 | – | > 100 | > 100 | > 100 | > 100 | > 100 | > 100
15 | COC(=O)c1c2c(cc3c1CC1(Cc4cc5c(cc4C1=O)CCC5)C3)CCC2 (configuration not stated) | > 100 | > 100 | > 100 | > 100 | > 100 | > 100 | – | > 100 | > 100 | > 100 | > 100 | > 100 | > 100 | 57.7 | > 100 | > 100 | > 100 | > 100 | –
16 | CC(=O)OCC(OC(C)=O)C(OC(C)=O)C(OC(C)=O)C(C=NN(C(C)=O)S(=O)(=O)c1ccc(/C=C2\NC(=O)NC2=O)cc1)OC(C)=O (configuration not stated) | > 100 | > 100 | > 100 | > 100 | – | > 100 | – | > 100 | > 100 | > 100 | > 100 | > 100 | > 100 | > 100 | > 100 | > 100 | > 100 | > 100 | > 100
17 | Cc1ccc2c(=O)cc(-c3ccsc3)[nH]c2n1 | > 100 | > 89.8 | > 75.6 | > 62.9 | 20.2 | > 100 | > 100 | > 56.6 | 2.09 | > 30.7 | 56.8 | > 100 | > 61.9 | – | 12.8 | > 100 | – | > 30.6 | > 20.5
18 | O=S(=O)(c1ccccc1)C1(CCC2OCCO2)C=CC2(CC1)OCCO2 (configuration not stated) | > 100 | > 100 | > 100 | > 100 | > 100 | > 100 | > 100 | – | > 100 | > 100 | > 100 | > 100 | – | > 100 | > 100 | > 100 | > 100 | – | > 100
19 | COC(=O)CSC(=S)Nc1nnc(NC(=S)SCOC(C)=O)n1C(=S)SCC(=O)OC | > 100 | > 100 | > 100 | > 100 | > 100 | 37.5 | – | > 100 | > 100 | > 100 | – | > 100 | > 100 | > 100 | > 100 | > 100 | > 100 | – | > 100
20 | COc1cc(N(Cc2ccc3nc(OC)c(OC)nc3c2)Cc2ccc3nc(OC)c(OC)nc3c2)cc(OC)c1OC | – | > 50 | > 50 | > 50 | > 50 | > 50 | – | > 50 | > 50 | > 50 | > 50 | – | > 50 | > 50 | > 50 | > 50 | > 50 | > 50 | > 50
21 | CC(=O)O[C@H]1C(=O)[C@@]2(C)[C@H]([C@H](OC(=O)c3ccccc3)[C@]3(O)C[C@H](OC(=O)[C@H](O)[C@@H](NC(=O)C(C)(C)C)c4ccccc4)C(C)=C1C3(C)C)[C@]1(OC(C)=O)CO[C@@H]1C[C@@H]2O | – | 0.839 | > 3.23 | > 10 | 0.0791 | > 10 | > 10 | > 10 | – | > 8.96 | > 10 | > 10 | 1.31 | > 10 | 0.251 | > 10 | 0.034 | > 3.28 | > 10
22 | CN(C)/C=N/NC(=O)/C(C#N)=C/N(C)C | > 100 | > 100 | > 100 | > 100 | > 100 | > 100 | – | > 100 | > 100 | > 100 | > 100 | > 100 | > 100 | > 100 | > 100 | > 100 | > 100 | > 100 | > 100
23 | Clc1cc(Br)c2c3c(c(Br)cc(Cl)c13)C(Br)=C2Br | > 100 | 90.9 | 40.3 | 37.6 | 56 | > 100 | – | 32.2 | > 100 | 45.6 | > 100 | > 100 | > 100 | 58.9 | – | > 100 | > 100 | > 100 | 57.8
24 | [O-][n+]1onc2c1/C(=N/O)CCC2 | > 100 | > 100 | > 100 | > 100 | > 100 | > 100 | – | > 100 | > 100 | > 100 | > 100 | > 100 | > 100 | > 100 | > 100 | > 100 | > 100 | > 100 | > 100
25 | O=c1[nH]c(=O)n(C2CC(O)C(CO)O2)cc1OCC1CCCCC1 (configuration not stated) | – | > 100 | > 100 | > 100 | > 100 | > 100 | – | > 100 | > 100 | > 100 | > 100 | > 100 | > 100 | – | > 100 | > 100 | > 100 | – | > 100
26 | N#Cc1nc(C(CO)N(Cc2ccccc2)C(=O)O)oc1N (configuration not stated) | > 100 | > 100 | > 100 | > 100 | > 100 | > 100 | > 100 | > 100 | – | > 100 | > 100 | > 100 | > 100 | > 100 | > 100 | > 100 | > 100 | > 100 | > 100
27 | O=c1[nH]c(-n2[nH]c3c(c2=O)CCCC3)nc(O)c1-c1ccccc1 | > 100 | > 100 | > 100 | > 100 | > 100 | – | > 100 | – | > 100 | > 100 | > 100 | > 100 | > 100 | > 100 | > 100 | – | > 100 | > 100 | > 100
